Source: ChEMBL document CHEMBL4879554, “Data for DCP probe GNE-2256” (2021)
Calls of active or inactive are those of the source. The rule behind the calls is not given here.

Assays:
[1] = molecular target: Interleukin-1 receptor-associated kinase 4 (Homo sapiens, UniProt Q9NWZ3); experiment: NanoBRET assay (IRAK4, SGC Frankfurt)
[2] = molecular target: NUAK family SNF1-like kinase 1 (Homo sapiens) (UniProt O60285); experiment: ARK5 Kinase panel; conditions: Compound concentration 1.0 uM
[3] = molecular target: Aurora kinase A (Homo sapiens) (UniProt O14965); experiment: Aurora_A Kinase panel; conditions: Compound concentration 1.0 uM
[4] = molecular target: Cytoplasmic tyrosine-protein kinase BMX (Homo sapiens) (UniProt P51813); experiment: Bmx Kinase panel; conditions: Compound concentration 1.0 uM
[5] = molecular target: Calcium/calmodulin-dependent protein kinase kinase 2 (Homo sapiens) (UniProt Q96RR4); experiment: CAMKK2 Kinase panel; conditions: Compound concentration 1.0 uM
[6] = molecular target: CDK9/cyclin T1 (Homo sapiens) (UniProt O60563+P50750); experiment: CDK9/cyclinT1 Kinase panel; format: protein-complex assay; conditions: Compound concentration 1.0 uM
[7] = molecular target: Epithelial discoidin domain-containing receptor 1 (Homo sapiens) (UniProt Q08345); experiment: DDR1 Kinase panel; conditions: Compound concentration 1.0 uM
[8] = molecular target: DNA-dependent protein kinase catalytic subunit (Homo sapiens) (UniProt P78527); experiment: DNA_PK Kinase panel; conditions: Compound concentration 1.0 uM
[9] = molecular target: Epidermal growth factor receptor (Homo sapiens) (UniProt P00533); experiment: EGFR Kinase panel; conditions: Compound concentration 1.0 uM
[10] = molecular target: Ephrin type-A receptor 7 (Homo sapiens) (UniProt Q15375); experiment: EphA7 Kinase panel; conditions: Compound concentration 1.0 uM
[11] = molecular target: Ephrin type-B receptor 1 (Homo sapiens) (UniProt P54762); experiment: EphB1 Kinase panel; conditions: Compound concentration 1.0 uM
[12] = molecular target: Receptor tyrosine-protein kinase erbB-2 (Homo sapiens) (UniProt P04626); experiment: ErbB2 Kinase panel; conditions: Compound concentration 1.0 uM
[13] = molecular target: Fibroblast growth factor receptor 3 (Homo sapiens) (UniProt P22607); experiment: FGFR3 Kinase panel; conditions: Compound concentration 1.0 uM
[14] = molecular target: Fibroblast growth factor receptor 4 (Homo sapiens) (UniProt P22455); experiment: FGFR4 Kinase panel; conditions: Compound concentration 1.0 uM
[15] = molecular target: Tyrosine-protein kinase FRK (Homo sapiens) (UniProt P42685); experiment: Frk Kinase panel; conditions: Compound concentration 1.0 uM
[16] = molecular target: Inhibitor of nuclear factor kappa-B kinase subunit beta (Homo sapiens) (UniProt O14920); experiment: IKK_beta Kinase panel; conditions: Compound concentration 1.0 uM
[17] = molecular target: Inhibitor of nuclear factor kappa-B kinase subunit epsilon (Homo sapiens) (UniProt Q14164); experiment: IKK_epsilon Kinase panel; conditions: Compound concentration 1.0 uM
[18] = molecular target: Insulin receptor (Homo sapiens) (UniProt P06213); experiment: InsR Kinase panel; conditions: Compound concentration 1.0 uM
[19] = molecular target: Leucine-rich repeat serine/threonine-protein kinase 2 (Homo sapiens) (UniProt Q5S007); experiment: LRRK2 Kinase panel; conditions: Compound concentration 1.0 uM
[20] = molecular target: MAP/microtubule affinity-regulating kinase 3 (Homo sapiens) (UniProt P27448); experiment: MARK3 Kinase panel; conditions: Compound concentration 1.0 uM
[21] = molecular target: Maternal embryonic leucine zipper kinase (Homo sapiens) (UniProt Q14680); experiment: MELK Kinase panel; conditions: Compound concentration 1.0 uM
[22] = molecular target: Dual specificity mitogen-activated protein kinase kinase 6 (Homo sapiens) (UniProt P52564); experiment: MKK6 Kinase panel; conditions: Compound concentration 1.0 uM
[23] = molecular target: MAP kinase-interacting serine/threonine-protein kinase 1 (Homo sapiens) (UniProt Q9BUB5); experiment: MKNK1 Kinase panel; conditions: Compound concentration 1.0 uM
[24] = molecular target: Myosin light chain kinase, smooth muscle (Homo sapiens) (UniProt Q15746); experiment: MYLK(smMLCK) Kinase panel; conditions: Compound concentration 1.0 uM
[25] = molecular target: Serine/threonine-protein kinase Nek1 (Homo sapiens) (UniProt Q96PY6); experiment: NEK1 Kinase panel; conditions: Compound concentration 1.0 uM
[26] = molecular target: Serine/threonine-protein kinase PAK 6 (Homo sapiens) (UniProt Q9NQU5); experiment: PAK6 Kinase panel; conditions: Compound concentration 1.0 uM
[27] = molecular target: Phosphatidylinositol 4,5-bisphosphate 3-kinase catalytic subunit alpha isoform (Homo sapiens) (UniProt P42336); experiment: PI3KA Kinase panel; conditions: Compound concentration 1.0 uM
[28] = molecular target: Serine/threonine-protein kinase pim-1 (Homo sapiens) (UniProt P11309); experiment: PIM1 Kinase panel; conditions: Compound concentration 1.0 uM
[29] = molecular target: Protein kinase C zeta type (Homo sapiens) (UniProt Q05513); experiment: PKC_zeta Kinase panel; conditions: Compound concentration 1.0 uM
[30] = molecular target: Serine/threonine-protein kinase D1 (Homo sapiens) (UniProt Q15139); experiment: PKD1 Kinase panel; conditions: Compound concentration 1.0 uM
[31] = molecular target: Serine/threonine-protein kinase PLK1 (Homo sapiens) (UniProt P53350); experiment: PLK1 Kinase panel; conditions: Compound concentration 1.0 uM
[32] = tested on: RAF proto-oncogene serine/threonine-protein kinase (Homo sapiens), P04049 [Y340D,Y341D]; experiment: RAF1(Y340D,Y3\n41D) Kinase panel; conditions: Compound concentration 1.0 uM
[33] = molecular target: Rho-associated protein kinase 2 (Homo sapiens) (UniProt O75116); experiment: ROCK2 Kinase panel; conditions: Compound concentration 1.0 uM
[34] = molecular target: Ribosomal protein S6 kinase alpha-3 (Homo sapiens) (UniProt P51812); experiment: RSK2 Kinase panel; conditions: Compound concentration 1.0 uM
[35] = molecular target: Serine/threonine-protein kinase Sgk3 (Homo sapiens) (UniProt Q96BR1); experiment: SGK3 Kinase panel; conditions: Compound concentration 1.0 uM
[36] = molecular target: Proto-oncogene tyrosine-protein kinase Src (Homo sapiens) (UniProt P12931); experiment: Src Kinase panel; conditions: Compound concentration 1.0 uM
[37] = molecular target: Activated CDC42 kinase 1 (Homo sapiens) (UniProt Q07912); experiment: TNK2 Kinase panel; conditions: Compound concentration 1.0 uM
[38] = molecular target: BDNF/NT-3 growth factors receptor (Homo sapiens) (UniProt Q16620); experiment: TrkB Kinase panel; conditions: Compound concentration 1.0 uM
[39] = molecular target: Serine/threonine-protein kinase mTOR (Homo sapiens) (UniProt P42345); experiment: mTOR Kinase panel; conditions: Compound concentration 1.0 uM
[40] = molecular target: Mitogen-activated protein kinase 13 (Homo sapiens) (UniProt O15264); experiment: p38_delta Kinase panel; conditions: Compound concentration 1.0 uM
[41] = molecular target: Ribosomal protein S6 kinase beta-1 (Homo sapiens) (UniProt P23443); experiment: p70S6K Kinase panel; conditions: Compound concentration 1.0 uM
[42] = molecular target: 5-hydroxytryptamine receptor 1B (Homo sapiens) (UniProt P28222); conditions: Compound concentration 10.0 uM
[43] = molecular target: 5-hydroxytryptamine receptor 1D (Homo sapiens) (UniProt P28221); conditions: Compound concentration 10.0 uM
[44] = molecular target: 5-hydroxytryptamine receptor 2B (Homo sapiens, UniProt P41595); conditions: Compound concentration 10.0 uM
[45] = molecular target: D(3) dopamine receptor (Homo sapiens) (UniProt P35462); conditions: Compound concentration 10.0 uM
[46] = molecular target: Sodium-dependent dopamine transporter (Homo sapiens) (UniProt Q01959); conditions: Compound concentration 10.0 uM
[47] = molecular target: Mu-type opioid receptor (Homo sapiens) (UniProt P35372); conditions: Compound concentration 10.0 uM
[48] = molecular target: Kappa-type opioid receptor (Homo sapiens) (UniProt P41145); conditions: Compound concentration 10.0 uM
[49] = molecular target: Alpha-2A adrenergic receptor (Homo sapiens) (UniProt P08913); conditions: Compound concentration 10.0 uM
[50] = molecular target: Muscarinic acetylcholine receptor M5 (Homo sapiens) (UniProt P08912); conditions: Compound concentration 10.0 uM
[51] = molecular target: Beta-3 adrenergic receptor (Homo sapiens) (UniProt P13945); conditions: Compound concentration 10.0 uM
[52] = molecular target: Alpha-1D adrenergic receptor (Homo sapiens) (UniProt P25100); conditions: Compound concentration 10.0 uM
Chain of Alpha-1D adrenergic receptor (Homo sapiens) (P25100 whole entry): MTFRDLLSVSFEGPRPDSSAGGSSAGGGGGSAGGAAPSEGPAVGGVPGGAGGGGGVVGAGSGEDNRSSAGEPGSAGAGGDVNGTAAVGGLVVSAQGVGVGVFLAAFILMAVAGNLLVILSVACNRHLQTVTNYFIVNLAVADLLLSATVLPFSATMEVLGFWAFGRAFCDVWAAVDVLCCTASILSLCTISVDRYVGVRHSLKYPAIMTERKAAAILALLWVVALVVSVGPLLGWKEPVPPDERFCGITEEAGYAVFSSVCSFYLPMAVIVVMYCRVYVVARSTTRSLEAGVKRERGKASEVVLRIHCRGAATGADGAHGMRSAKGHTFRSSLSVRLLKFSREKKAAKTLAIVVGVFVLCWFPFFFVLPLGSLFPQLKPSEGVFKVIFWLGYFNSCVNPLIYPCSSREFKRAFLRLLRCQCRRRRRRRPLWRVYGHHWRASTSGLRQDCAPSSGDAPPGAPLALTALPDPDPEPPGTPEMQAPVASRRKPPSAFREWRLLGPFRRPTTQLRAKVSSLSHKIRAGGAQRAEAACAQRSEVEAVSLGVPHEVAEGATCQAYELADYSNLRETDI

Chain of Interleukin-1 receptor-associated kinase 4 (Q9NWZ3 whole entry): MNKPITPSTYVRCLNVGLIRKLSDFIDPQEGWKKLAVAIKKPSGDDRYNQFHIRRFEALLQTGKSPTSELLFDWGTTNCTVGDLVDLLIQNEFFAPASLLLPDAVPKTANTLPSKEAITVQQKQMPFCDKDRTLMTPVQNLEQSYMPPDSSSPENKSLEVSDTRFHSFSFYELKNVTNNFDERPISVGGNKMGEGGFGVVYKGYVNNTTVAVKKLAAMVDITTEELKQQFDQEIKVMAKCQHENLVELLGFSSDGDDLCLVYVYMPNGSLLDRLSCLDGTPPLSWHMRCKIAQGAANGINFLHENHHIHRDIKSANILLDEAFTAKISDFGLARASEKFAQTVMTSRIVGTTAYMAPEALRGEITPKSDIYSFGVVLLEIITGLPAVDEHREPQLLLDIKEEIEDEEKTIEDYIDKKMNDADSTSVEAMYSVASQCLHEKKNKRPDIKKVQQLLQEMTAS
Chain of Fibroblast growth factor receptor 4 (Homo sapiens) (P22455 22-802 limits assumed): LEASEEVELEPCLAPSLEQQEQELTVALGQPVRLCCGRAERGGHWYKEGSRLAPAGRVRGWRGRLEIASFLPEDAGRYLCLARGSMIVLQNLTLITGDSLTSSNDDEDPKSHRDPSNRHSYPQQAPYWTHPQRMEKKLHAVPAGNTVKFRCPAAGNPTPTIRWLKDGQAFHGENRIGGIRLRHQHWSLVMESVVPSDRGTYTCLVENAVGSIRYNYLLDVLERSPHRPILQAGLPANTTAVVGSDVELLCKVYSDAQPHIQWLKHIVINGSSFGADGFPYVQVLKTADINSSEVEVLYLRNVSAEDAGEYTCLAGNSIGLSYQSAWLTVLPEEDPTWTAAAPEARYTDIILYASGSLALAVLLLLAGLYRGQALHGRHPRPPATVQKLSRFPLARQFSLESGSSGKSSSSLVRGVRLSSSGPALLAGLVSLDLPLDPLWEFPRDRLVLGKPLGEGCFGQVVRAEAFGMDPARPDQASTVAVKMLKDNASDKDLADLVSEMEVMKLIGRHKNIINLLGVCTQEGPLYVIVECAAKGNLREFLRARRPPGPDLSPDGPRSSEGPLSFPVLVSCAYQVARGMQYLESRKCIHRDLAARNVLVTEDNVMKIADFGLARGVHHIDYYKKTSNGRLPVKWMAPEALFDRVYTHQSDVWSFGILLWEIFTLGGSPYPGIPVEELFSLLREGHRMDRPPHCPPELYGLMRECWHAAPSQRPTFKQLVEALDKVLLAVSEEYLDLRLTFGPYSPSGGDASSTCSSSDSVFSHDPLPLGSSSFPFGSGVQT
Chain of Epithelial discoidin domain-containing receptor 1 (Homo sapiens) (Q08345 whole entry, the tested form may be a part): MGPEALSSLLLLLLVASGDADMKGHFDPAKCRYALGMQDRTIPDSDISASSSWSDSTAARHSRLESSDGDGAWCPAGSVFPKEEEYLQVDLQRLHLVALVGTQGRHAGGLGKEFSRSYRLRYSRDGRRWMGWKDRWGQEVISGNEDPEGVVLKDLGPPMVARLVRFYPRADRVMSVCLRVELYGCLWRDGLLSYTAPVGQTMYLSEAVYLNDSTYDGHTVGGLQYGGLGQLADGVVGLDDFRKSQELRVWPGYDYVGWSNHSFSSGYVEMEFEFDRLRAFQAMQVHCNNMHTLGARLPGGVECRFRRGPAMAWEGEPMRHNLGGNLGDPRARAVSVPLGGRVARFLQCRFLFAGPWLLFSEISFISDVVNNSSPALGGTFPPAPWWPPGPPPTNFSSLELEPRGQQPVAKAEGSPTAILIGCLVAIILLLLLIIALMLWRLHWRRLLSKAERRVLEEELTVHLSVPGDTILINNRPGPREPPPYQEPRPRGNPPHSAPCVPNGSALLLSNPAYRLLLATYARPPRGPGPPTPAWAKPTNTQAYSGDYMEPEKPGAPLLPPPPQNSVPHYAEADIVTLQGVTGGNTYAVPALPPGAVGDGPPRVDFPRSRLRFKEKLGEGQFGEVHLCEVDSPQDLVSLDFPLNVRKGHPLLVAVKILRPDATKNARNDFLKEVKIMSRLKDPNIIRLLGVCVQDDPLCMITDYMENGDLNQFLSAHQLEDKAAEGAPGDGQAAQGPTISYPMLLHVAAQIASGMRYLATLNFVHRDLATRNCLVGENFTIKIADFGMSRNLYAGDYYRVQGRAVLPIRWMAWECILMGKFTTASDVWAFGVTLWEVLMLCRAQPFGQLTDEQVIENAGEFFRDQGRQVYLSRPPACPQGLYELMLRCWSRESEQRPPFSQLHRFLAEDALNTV
Chain of Inhibitor of nuclear factor kappa-B kinase subunit beta (Homo sapiens) (O14920 whole entry): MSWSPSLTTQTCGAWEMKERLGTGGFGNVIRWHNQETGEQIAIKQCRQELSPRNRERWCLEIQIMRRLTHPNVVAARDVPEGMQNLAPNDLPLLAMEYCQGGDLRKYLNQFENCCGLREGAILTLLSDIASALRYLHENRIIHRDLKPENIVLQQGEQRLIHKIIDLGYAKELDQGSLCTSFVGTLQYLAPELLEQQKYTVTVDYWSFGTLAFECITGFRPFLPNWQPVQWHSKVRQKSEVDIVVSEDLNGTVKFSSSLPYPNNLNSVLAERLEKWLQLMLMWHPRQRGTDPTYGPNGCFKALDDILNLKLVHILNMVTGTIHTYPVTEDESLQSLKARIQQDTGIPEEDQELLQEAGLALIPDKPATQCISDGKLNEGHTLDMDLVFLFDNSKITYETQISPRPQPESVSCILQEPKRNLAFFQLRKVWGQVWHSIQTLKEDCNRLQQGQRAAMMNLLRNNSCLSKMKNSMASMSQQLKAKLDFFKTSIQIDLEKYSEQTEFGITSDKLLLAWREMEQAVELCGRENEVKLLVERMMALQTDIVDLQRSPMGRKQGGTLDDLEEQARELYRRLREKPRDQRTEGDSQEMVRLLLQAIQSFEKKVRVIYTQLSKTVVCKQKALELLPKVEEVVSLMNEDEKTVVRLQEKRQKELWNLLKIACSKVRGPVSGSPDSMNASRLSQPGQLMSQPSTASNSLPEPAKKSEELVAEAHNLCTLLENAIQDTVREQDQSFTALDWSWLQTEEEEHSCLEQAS
Chain of NUAK family SNF1-like kinase 1 (Homo sapiens) (O60285 whole entry): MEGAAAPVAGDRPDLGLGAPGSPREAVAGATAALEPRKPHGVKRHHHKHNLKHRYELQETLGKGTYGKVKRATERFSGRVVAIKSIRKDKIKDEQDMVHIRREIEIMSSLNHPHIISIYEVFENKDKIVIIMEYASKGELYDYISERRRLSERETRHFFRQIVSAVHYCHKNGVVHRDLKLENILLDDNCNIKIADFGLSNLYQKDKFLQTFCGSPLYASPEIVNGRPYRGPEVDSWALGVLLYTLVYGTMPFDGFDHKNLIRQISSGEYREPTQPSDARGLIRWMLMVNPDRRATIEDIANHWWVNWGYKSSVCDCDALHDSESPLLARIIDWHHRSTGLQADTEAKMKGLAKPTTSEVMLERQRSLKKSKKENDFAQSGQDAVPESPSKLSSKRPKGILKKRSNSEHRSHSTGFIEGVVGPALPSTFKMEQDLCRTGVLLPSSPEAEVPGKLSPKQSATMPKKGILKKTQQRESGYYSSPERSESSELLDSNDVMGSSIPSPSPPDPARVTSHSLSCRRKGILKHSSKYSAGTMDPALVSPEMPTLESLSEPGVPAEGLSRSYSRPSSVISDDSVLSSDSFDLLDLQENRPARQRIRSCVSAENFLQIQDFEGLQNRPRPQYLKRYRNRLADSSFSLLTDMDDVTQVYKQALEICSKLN
Chain of Muscarinic acetylcholine receptor M5 (Homo sapiens) (P08912 whole entry): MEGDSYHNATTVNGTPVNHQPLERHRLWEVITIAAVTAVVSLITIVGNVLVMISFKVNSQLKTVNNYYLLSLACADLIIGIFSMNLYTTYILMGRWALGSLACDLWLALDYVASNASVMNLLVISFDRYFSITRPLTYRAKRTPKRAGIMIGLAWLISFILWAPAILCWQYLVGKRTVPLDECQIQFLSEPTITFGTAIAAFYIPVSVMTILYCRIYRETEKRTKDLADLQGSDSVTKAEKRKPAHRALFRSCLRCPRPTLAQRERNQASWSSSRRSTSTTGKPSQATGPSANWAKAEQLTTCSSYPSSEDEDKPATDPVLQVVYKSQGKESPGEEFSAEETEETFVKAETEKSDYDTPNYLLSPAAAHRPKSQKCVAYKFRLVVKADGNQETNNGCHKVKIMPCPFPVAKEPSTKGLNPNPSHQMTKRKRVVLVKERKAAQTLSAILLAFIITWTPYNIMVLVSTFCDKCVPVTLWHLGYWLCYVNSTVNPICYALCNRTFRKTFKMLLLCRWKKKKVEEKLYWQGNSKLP
Chain of 5-hydroxytryptamine receptor 1D (Homo sapiens) (P28221 whole entry): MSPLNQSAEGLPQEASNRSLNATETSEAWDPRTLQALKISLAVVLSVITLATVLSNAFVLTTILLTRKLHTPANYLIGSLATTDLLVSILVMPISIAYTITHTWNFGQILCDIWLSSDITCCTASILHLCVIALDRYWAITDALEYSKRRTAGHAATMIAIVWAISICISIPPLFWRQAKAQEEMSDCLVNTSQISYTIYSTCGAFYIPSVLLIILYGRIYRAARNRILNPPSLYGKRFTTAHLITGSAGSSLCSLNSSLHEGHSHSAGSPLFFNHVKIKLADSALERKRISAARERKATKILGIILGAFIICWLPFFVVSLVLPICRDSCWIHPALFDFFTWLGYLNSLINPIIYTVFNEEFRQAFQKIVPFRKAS

CC(C)(O)[C@H](F)CN1Cc2cc(NC(=O)c3cnn4cccnc34)c(N3CCOCC3)cc2C1=O
EC50 [1]: 3 nM (active)
IC50 [1]: 3.3 nM (active)
inhibition [2]: 23.5%
inhibition [3]: 20.5%
inhibition [4]: 33.3%
inhibition [5]: 8.5%
inhibition [6]: 2.5%
inhibition [7]: -2%
inhibition [8]: 9%
inhibition [9]: 6.8%
inhibition [10]: 20%
inhibition [11]: 23%
inhibition [12]: 1.5%
inhibition [13]: 1.5%
inhibition [14]: -2%
inhibition [15]: 5.5%
inhibition [16]: 1.5%
inhibition [17]: -0.5%
inhibition [18]: 34.5%
inhibition [19]: 91.4%
inhibition [20]: 8.5%
inhibition [21]: 12.5%
inhibition [22]: -5.5%
inhibition [23]: -6%
inhibition [24]: 12%
inhibition [25]: 11%
inhibition [26]: 7%
inhibition [27]: 21.5%
inhibition [28]: 1.5%
inhibition [29]: 6%
inhibition [30]: 7.5%
inhibition [31]: -2%
inhibition [32]: -1.5%
inhibition [33]: 6%
inhibition [34]: 15%
inhibition [35]: -0.5%
inhibition [36]: 23.8%
inhibition [37]: 37.5%
inhibition [38]: 86%
inhibition [39]: -0%
inhibition [40]: 5.5%
inhibition [41]: 1%
inhibition [42]: 33%
inhibition [43]: 33.2%
inhibition [44]: 84.1%
inhibition [45]: -1.84%
inhibition [46]: 20%
inhibition [47]: 6.2%
inhibition [48]: -0.13%
inhibition [49]: 9.09%
inhibition [50]: -6.7%
inhibition [51]: 11.2%
inhibition [52]: 6.71%
